Like-named read-outs stand apart in the source and are kept apart here.
Experiments:
human adenosine A2AR = molecular target: T1, human adenosine A2AR (Homo sapiens, UniProt P29274); assay: Radioligand binding at human adenosine A2A receptor vs. [3H]MSX-2; settings: for potency as A2AR ligand compared with A1R: from Ki values of Table 1; for Ki: human recombinant receptor in CHO cells, read-out: A2AR vs. [³H]MSX-2 Ki ± SEM
T1 construct: expressed in transfected cells; host or cells: CHO cells
Protocol: (§1) Affinities for adenosine receptors were evaluated in radioligand binding assays as previously described. Human adenosine receptors were stably expressed in CHO cells. The following radioligands were used: [^3H]2-chloro-N^6-cyclopentyladenosine ([^3H]CCPA) for A1R; [^3H]3-(3-hydroxypropyl)-7-methyl-8-(m-methoxystyryl)-1-propargylxanthine ([^3H]MSX-2) for A2AR; [^3H]8-(4-(4-(4-chlorophenyl)piperazine-1-sulfonyl)phenyl)-1-propylxanthine ([^3H]PSB-603) for A2BR; [^3H]phenyl-8-ethyl-4-methyl-(8R)-4,5,7,8-tetrahydro-1H-imidazo [2,1-i]purine-5-one ([^3H]PSB-11) for A3R. Initially, compounds were tested at a concentration of 1 µM. […] At least three independent experiments were performed. Data were analyzed using GraphPad PRISM version 5.0 or higher (Graph Pad, San Diego, CA, USA). Ki were calculated using the Cheng–Prusoff equation.

human adenosine A3R = molecular target: T2, human adenosine A3R (Homo sapiens, UniProt P0DMS8); assay: Radioligand binding at human adenosine A3 receptor vs. [3H]PSB-11; settings: for inhibition at 1 µM: CHO cells, read-out: A3R vs. [H³]PSB-11 % Inhibition ± SEM at 1 µM; for Ki: human recombinant receptor in CHO cells, read-out: A3R vs. [H³]PSB-11 Ki ± SEM
T2 construct: expressed in transfected cells; host or cells: CHO cells
T2 sequence (P0DMS8 1-318): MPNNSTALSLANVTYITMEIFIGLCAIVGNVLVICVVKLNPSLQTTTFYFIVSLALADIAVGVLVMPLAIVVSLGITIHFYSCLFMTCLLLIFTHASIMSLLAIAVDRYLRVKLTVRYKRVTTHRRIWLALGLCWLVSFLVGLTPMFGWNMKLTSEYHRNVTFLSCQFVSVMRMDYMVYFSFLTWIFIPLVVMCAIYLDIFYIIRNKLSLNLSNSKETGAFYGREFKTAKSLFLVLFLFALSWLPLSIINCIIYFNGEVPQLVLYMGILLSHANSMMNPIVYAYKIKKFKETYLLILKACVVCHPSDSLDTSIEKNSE
Protocol: as §1

SH-SY5Y cells = assay: Neurotoxicity, MTS cell viability; format: cell-based, human; settings: 0.098 μM to 100 μM, 24 h
Protocol: (§2) Drug safety is a critical step in the process of drug development. […] In our studies, neurotoxicity and hepatotoxicity were evaluated in SH-SY5Y and HepG2 cells, respectively. The compounds were tested at 11 concentrations from 0.098 μM to 100 μM (see Figure 5). Cell viability was assessed after incubation for 24 h with the SH-SY5Y line and for 48 h with the HepG2 line.
(§3) To evaluate neurotoxicity and hepatotoxicity, the human neuroblastoma cell line SH-SY5Y (ATCC® no. CRL-2266™) and hepatoma cell line HepG2 (ATCC® no. HB-8065™) were used, respectively. The cells (SH-SY5Y: 5 × 10^3 cells/100μL/well and HepG2: 7 × 10^3 cells/100 μL/well) were seeded in transparent 96-well plates (Nunc) in DMEM supplemented with 10% FBS and cultured overnight. The next day, the medium was changed to medium containing dimethylsulfoxide (DMSO < 0.1%, vehicle control) or an increasing concentration of compounds MZ-1483 (19), MZ-1490 (22) and MZ-1495 (24) ([…]–100 × 10^−6 M). To perform dose-response analysis, two-fold serial dilutions (11 points) were prepared. Treatment with compounds was performed for 48 h. After the incubation time, the cell viability was examined using an MTS-based [3-(4,5-dimethylthiazol-2-yl)-5-(3-carboxymethoxyphenyl)-2-(4-sulfophenyl)-2 H tetrazolium] CellTiter96® AQueous One Solution Cell Proliferation Assay (Promega, Madison, WI, USA) following the manufacturer’s protocol. Briefly, 20 μL of MTS solution was pipetted into each well containing 100 μL of culture or culture medium (negative control) and incubated at 37 °C for 1 h. After incubation time, formazan product turnover absorbance was measured at 490 nm using the microplate reader (Tecan Spark®, Tecan Group Ltd., Maennedorf, Switzerland). A reference wavelength of 630 nm was used.

HepG2 cells = assay: Hepatotoxicity, MTS cell viability; format: cell-based, human; settings: 0.098 μM to 100 μM, 48 h
Protocol: as §2, §3

[1] = Precipitation in culture medium seen under inverted microscope; format: physicochemical; settings: 25 μM, 50 μM, 100 μM
[2] = Metabolic stability in human liver microsomes; format: in vitro ADME; settings: for number of metabolites formed: HLMs, 120 min; for remaining at 2 h: human, liver microsomes, after 120 min of incubation with HLMs, read-out: % Remaining in the Reaction Mixture
Protocol: In our study, the compounds were incubated for 120 min with HLMs, followed by liquid chromatography-mass spectrometry (LC-MS) to identify the formed metabolites.
Human liver microsomes (HLMs) were purchased from Sigma-Aldrich (St. Louis, MO, USA; catalog nr M9066-1VL). The studies with microsomes were supported by MetaSite 6.0.1 software provided by Molecular Discovery Ltd. (Hertfordshire, UK), which allowed for the determination of the most probable sites of metabolism. The compounds were incubated with HLMs for 120 min. After the addition of methanol and centrifugation, the supernatants were analyzed with the Waters ACQUITY™ TQD system (Waters, Milford, CT, USA). All reference drugs used (caffeine, ketoconazole, quinidine and sulfaphenazole) were purchased from Sigma-Aldrich (St. Louis, MO, USA).

[3] = PAMPA blood brain barrier permeability; format: in vitro ADME
Protocol: The ability of compounds, especially those intended to act in the CNS, to penetrate the blood-brain barrier (BBB) is an important property to consider in the initial stages of drug candidate screening. The PAMPA assay is a commonly used test to assess the passive permeation of the BBB [17]. In our study, caffeine was used as a highly permeable compound. […] After 5 h of incubation at room temperature, the results were analyzed by LC-MS, and the permeability coefficients (Pe) were calculated.
For permeability evaluation, a PAMPA Gentest™ pre-coated […] system, provided by Corning (Tewksbury, MA, USA), was used. The precise procedure was previously described. The permeability coefficient Pe was calculated based on the given equations. Concentrations of the tested compounds in the apical and basolateral wells were determined by LC/MS analysis using an internal standard.

[4] = 100 μM in PBS, 5 h, room temperature, triplicate
[5] = 100 μM in PBS, 5 h, room temperature, triplicate, read-out: Pe ± SD

T1 sequence (P29274 whole entry): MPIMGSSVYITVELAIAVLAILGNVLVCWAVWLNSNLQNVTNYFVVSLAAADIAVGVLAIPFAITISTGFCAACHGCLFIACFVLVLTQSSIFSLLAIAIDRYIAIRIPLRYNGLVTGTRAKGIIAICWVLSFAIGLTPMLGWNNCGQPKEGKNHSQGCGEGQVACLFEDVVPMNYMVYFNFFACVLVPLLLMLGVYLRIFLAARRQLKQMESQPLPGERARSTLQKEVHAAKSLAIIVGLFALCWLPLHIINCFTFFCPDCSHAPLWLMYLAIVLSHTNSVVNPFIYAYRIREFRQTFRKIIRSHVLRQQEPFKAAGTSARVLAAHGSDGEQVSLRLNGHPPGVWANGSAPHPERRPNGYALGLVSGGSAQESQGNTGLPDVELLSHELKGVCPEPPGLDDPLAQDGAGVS

| potency as A2AR ligand compared with A1R (human adenosine A2AR) | Ki (human adenosine A2AR) [nM] | inhibition at 1 µM (human adenosine A3R) [%] | Ki (human adenosine A3R) [nM] | number of metabolites formed [2] | remaining at 2 h [2] [%] | Drug Retention [3] [%] | Pe ± SD [3, 4] | Papp at 5 h, 100 μM [3, 5] [×10⁻⁶ cm/s] | Papp at 5 h, 100 μM ([3]; read-out: Permeable) [×10⁻⁶ cm/s] | SMILES | neurotoxicity, cell viability (in words) (SH-SY5Y cells) | hepatotoxicity, cell viability (in words) (HepG2 cells) | behaviour in the culture medium at the highest concentrations [1] |
| --- | --- | --- | --- | --- | --- | --- | --- | --- | --- | --- | --- | --- | --- |
| twice more potent as A2AR ligand | 62 ± 5 | 21 | > 1000 | one metabolite | > 90 | 68.62 | 0.37 10^−6 cm/s | 0.37 ± 0.01 | ≤ 1.5 | C#CCn1c(=O)c2c(nc(NCc3c(F)cccc3Cl)n2C)n(C)c1=O [compound 22, 8-((2-Chloro-6-fluorobenzyl)amino)-3,7-dimethyl-1-(prop-2-yn-1-yl)-3,7-dihydro-1H-purine-2,6-dione] | high safety profile | high safety profile | precipitated and formed crystals in the culture medium |
| four times more potent as A2AR ligand | 96 ± 31 | 9 | > 1000 | two metabolites | > 95 | 51.78 | greater than 1.5 10^−6 cm/s | 3.13 ± 0.82 | ≥ 1.5 | C#CCn1c(=O)c2c(nc(NCc3ccccc3Cl)n2C)n(C)c1=O [compound 19, 8-((2-Chlorobenzyl)amino)-3,7-dimethyl-1-(prop-2-yn-1-yl)-3,7-dihydro-1H-purine-2,6-dione] | high safety profile | high safety profile | precipitated and formed crystals in the culture medium |
| equal potency for both receptors | 77 ± 24 | 7 | > 1000 | one metabolite | > 95 | 93.30 | 0.89 10^−6 cm/s | 0.89 ± 0.71 | ≤ 1.5 | C#CCn1c(=O)c2c(nc(NCc3cccc(Br)c3)n2C)n(C)c1=O [compound 24, 8-((3-Bromobenzyl)amino)-3,7-dimethyl-1-(prop-2-yn-1-yl)-3,7-dihydro-1H-purine-2,6-dione] | high safety profile | high safety profile | precipitated and formed crystals in the culture medium |

Source: publication PMC10531311, “Anti-Inflammatory Activities of 8-Benzylaminoxanthines Showing High Adenosine A2A and Dual A1/A2A Receptor Affinity” (International Journal of Molecular Sciences, 2023)
